Source: patent US20210122730A1, “GLUCOCORTICOID RECEPTOR MODULATORS” (ORIC Pharmaceuticals, Inc., priority 2017, published 2021)

Columns and labels:
GR = molecular target: T1, GR (Homo sapiens, UniProt P04150); experiment: In Vitro GR Luciferase Reporter Assay (antagonist mode, CHO-K1-GR-MMTV-Luc reporter cells); assay type: cell-based; conditions: antagonist mode, 10 nM Dexamethasone
T1 construct: expressed in transfected cells; host or cells: CHO-K1
T1 sequence (P04150 1-777): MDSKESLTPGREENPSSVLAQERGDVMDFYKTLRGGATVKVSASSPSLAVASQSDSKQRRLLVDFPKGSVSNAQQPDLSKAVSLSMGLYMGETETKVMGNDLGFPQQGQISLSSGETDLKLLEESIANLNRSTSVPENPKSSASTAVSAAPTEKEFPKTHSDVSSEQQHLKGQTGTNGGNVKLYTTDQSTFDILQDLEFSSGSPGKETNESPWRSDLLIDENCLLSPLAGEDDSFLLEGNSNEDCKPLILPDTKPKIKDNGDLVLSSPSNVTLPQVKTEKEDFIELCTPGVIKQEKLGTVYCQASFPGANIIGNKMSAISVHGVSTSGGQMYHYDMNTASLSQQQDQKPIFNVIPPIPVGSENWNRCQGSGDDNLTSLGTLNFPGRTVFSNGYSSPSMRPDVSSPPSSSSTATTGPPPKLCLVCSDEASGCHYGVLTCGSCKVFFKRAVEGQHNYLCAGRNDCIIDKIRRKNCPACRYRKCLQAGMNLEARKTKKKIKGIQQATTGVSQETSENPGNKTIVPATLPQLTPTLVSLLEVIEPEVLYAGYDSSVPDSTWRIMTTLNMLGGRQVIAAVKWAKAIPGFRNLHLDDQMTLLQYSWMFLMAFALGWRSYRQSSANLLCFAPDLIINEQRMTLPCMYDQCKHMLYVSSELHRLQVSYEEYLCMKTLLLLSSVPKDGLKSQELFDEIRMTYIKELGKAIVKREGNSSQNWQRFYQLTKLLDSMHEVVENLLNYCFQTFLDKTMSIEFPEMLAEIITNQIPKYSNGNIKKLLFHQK
Outline: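 Antagonist mode: compounds (8 serial 1:5 dilutions) added to GR-MMTV-luciferase CHO-K1 reporter cells co-exposed to 10 nM dexamethasone final, in phenol red-free DMEM plus 10% CSS. After roughly 18-24 h at 37° C, OneGlo luminescence read and IC50 calculated.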

CYP2C8 = molecular target: T2, CYP2C8 (Homo sapiens, UniProt P10632); experiment: CYP Inhibition Assay (CYP2C8, human liver microsomes, paclitaxel substrate); assay type: in vitro ADME; conditions: pH 7.4; pooled human liver microsomes 0.1 mg/mL, probe substrate paclitaxel
T2 construct: Pooled human microsomes were obtained from Sekisui XenoTech, KS; tissue Sekisui XenoTech, KS; host or cells: pooled human liver microsomes
T2 sequence (P10632 1-490): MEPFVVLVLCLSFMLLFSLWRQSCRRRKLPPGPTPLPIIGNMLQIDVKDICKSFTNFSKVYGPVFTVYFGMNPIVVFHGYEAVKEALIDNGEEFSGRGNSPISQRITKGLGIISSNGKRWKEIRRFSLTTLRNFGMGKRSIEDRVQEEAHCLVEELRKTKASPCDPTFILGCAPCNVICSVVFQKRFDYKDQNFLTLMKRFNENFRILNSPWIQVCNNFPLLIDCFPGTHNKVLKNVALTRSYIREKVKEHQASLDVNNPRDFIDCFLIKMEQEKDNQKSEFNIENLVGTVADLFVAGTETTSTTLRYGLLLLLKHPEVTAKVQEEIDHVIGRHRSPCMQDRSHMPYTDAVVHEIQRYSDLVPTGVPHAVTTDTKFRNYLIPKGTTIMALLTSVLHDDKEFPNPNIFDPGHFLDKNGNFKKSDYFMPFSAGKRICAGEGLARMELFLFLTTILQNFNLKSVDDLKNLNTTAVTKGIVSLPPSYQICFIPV
Outline: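 CYP2C8 activity read as 6α-hydroxypaclitaxel formation by LC-MS/MS, with % inhibition versus vehicle control. Reactions ran 5 min at 37° C, pH 7.4 phosphate buffer, 0.1 mg/mL pooled human liver microsomes, 1 mM NADPH, duplicate wells.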

Row | IC50 (GR) | inhibition at 5 min (CYP2C8) | Structure (SMILES)
1 | ≤ 100 nM | 25 to 50% | CO[C@]1(C)C[C@H](N([C@H]2CCC3=Cc4c(cnn4-c4ccc(F)cc4)C[C@]3(C(=O)c3ncc(C(F)(F)F)s3)C2)S(=O)(=O)c2ccn(C)n2)C1 [Example 342, N-((4aS,6S)-1-(4-fluorophenyl)-4a-(5-(trifluoromethyl)thiazole-2-carbonyl)-4,4a,5,6,7,8-hexahydro-1H-benzo[f]indazol-6-yl)-N-((1s,3R)-3-methoxy-3-methylcyclobutyl)-1-methyl-1H-pyrazole-3-sulfonamide]
2 | ≤ 100 nM | 25 to 50% | C[C@]1(O)C[C@@H](N([C@H]2CCC3=Cc4c(cnn4-c4ccc(F)cc4)C[C@]3(C(=O)c3cc(Cl)ccn3)C2)S(=O)(=O)c2ccc(F)cc2)C1 [Example 344, N-((4aS,6S)-4a-(4-chloropicolinoyl)-1-(4-fluorophenyl)-4,4a,5,6,7,8-hexahydro-1H-benzo[f]indazol-6-yl)-4-fluoro-N-((1s,3R)-3-hydroxy-3-methylcyclobutyl)benzenesulfon-amide]
3 | ≤ 100 nM | 25 to 50% | O=C(c1cc(F)ccn1)[C@]12Cc3cnn(-c4ccc(F)cc4)c3C=C1CC[C@H](N(C1CC(F)(F)C1)S(=O)(=O)c1ccc(Cl)nc1)C2 [Example 346, 6-chloro-N-(3,3-difluorocyclobutyl)-N-((4aS,6S)-1-(4-fluorophenyl)-4a-(4-fluoropicolinoyl)-4,4a,5,6,7,8-hexahydro-1H-benzo[f]indazol-6-yl)pyridine-3-sulfonamide]
4 | ≤ 100 nM | 25 to 50% | Cn1cnc(S(=O)(=O)N(C2CC2)[C@H]2CCC3=Cc4c(cnn4-c4ccc(F)cc4)C[C@]3(C(=O)c3cc(F)ccn3)C2)n1 [Example 347, N-cyclopropyl-N-((4aS,6S)-1-(4-fluorophenyl)-4a-(4-fluoropicolinoyl)-4,4a,5,6,7,8-hexahydro-1H-benzo[f]indazol-6-yl)-1-methyl-1H-1,2,4-triazole-3-sulfonamide]
5 | ≤ 100 nM | 25 to 50% | Cn1cnc(S(=O)(=O)N(C2CC2)[C@H]2CCC3=Cc4c(cnn4-c4ccc(F)cc4)C[C@]3(C(=O)c3cc(Cl)ccn3)C2)n1 [Example 348, N-((4aS,6S)-4a-(4-chloropicolinoyl)-1-(4-fluorophenyl)-4,4a,5,6,7,8-hexahydro-1H-benzo[f]indazol-6-yl)-N-cyclopropyl-1-methyl-1H-1,2,4-triazole-3-sulfonamide]
6 | ≤ 100 nM | 25 to 50% | Cn1ccc(S(=O)(=O)N(C2CC(F)(F)C2)[C@H]2CCC3=Cc4c(cnn4-c4ccc(F)cc4)C[C@]3(C(=O)c3cc(Cl)ccn3)C2)n1 [Example 349, N-((4aS,6S)-4a-(4-chloropicolinoyl)-1-(4-fluorophenyl)-4,4a,5,6,7,8-hexahydro-1H-benzo[f]indazol-6-yl)-N-(3,3-difluorocyclobutyl)-1-methyl-1H-pyrazole-3-sulfonamide]
7 | ≤ 100 nM | 25 to 50% | Cn1cc(S(=O)(=O)N(CC(F)F)[C@H]2CCC3=Cc4c(cnn4-c4ccc(F)cc4)C[C@]3(C(=O)c3ncc(C(F)(F)F)s3)C2)nn1 [Example 350, N-(2,2-difluoroethyl)-N-((4aS,6S)-1-(4-fluorophenyl)-4a-(5-(trifluoromethyl)thiazole-2-carbonyl)-4,4a,5,6,7,8-hexahydro-1H-benzo[f]indazol-6-yl)-1-methyl-1H-1,2,3-triazole-4-sulfonamide]
8 | ≤ 100 nM | 25 to 50% | Cn1cnc(S(=O)(=O)N(C2CC(F)(F)C2)[C@H]2CCC3=Cc4c(cnn4-c4ccc(F)cc4)C[C@]3(C(=O)c3cc(F)ccn3)C2)n1 [Example 354, N-(3,3-difluorocyclobutyl)-N-((4aS,6S)-1-(4-fluorophenyl)-4a-(4-fluoropicolinoyl)-4,4a,5,6,7,8-hexahydro-1H-benzo[f]indazol-6-yl)-1-methyl-1H-1,2,4-triazole-3-sulfonamide]
9 | ≤ 100 nM | ≤ 25% | Cn1cnc(S(=O)(=O)N(C2CC(F)(F)C2)[C@H]2CCC3=Cc4c(cnn4-c4ccc(F)cc4)C[C@]3(C(=O)c3cc(Cl)ccn3)C2)n1 [Example 355, N-((4aS,6S)-4a-(4-chloropicolinoyl)-1-(4-fluorophenyl)-4,4a,5,6,7,8-hexahydro-1H-benzo[f]indazol-6-yl)-N-(3,3-difluorocyclobutyl)-1-methyl-1H-1,2,4-triazole-3-sulfonamide]
10 | ≤ 100 nM | 25 to 50% | CCN([C@H]1CCC2=Cc3c(cnn3-c3ccc(F)cc3)C[C@]2(C(=O)c2ncc(C(F)(F)F)s2)C1)S(=O)(=O)c1ncn(C)n1 [Example 356, N-ethyl-N-((4aS,6S)-1-(4-fluorophenyl)-4a-(5-(trifluoromethyl)thiazole-2-carbonyl)-4,4a,5,6,7,8-hexahydro-1H-benzo[f]indazol-6-yl)-1-methyl-1H-1,2,4-triazole-3-sulfonamide]
11 | ≤ 100 nM | ≤ 25% | CCN([C@H]1CCC2=Cc3c(cnn3-c3ccc(F)cc3)C[C@]2(C(=O)c2cc(C(F)(F)F)ccn2)C1)S(=O)(=O)c1ncn(C)n1 [Example 357, N-ethyl-N-((4aS,6S)-1-(4-fluorophenyl)-4a-(4-(trifluoromethyl)picolinoyl)-4,4a,5,6,7,8-hexahydro-1H-benzo[f]indazol-6-yl)-1-methyl-1H-1,2,4-triazole-3-sulfonamide]
12 | ≤ 100 nM | 25 to 50% | CCN([C@H]1CCC2=Cc3c(cnn3-c3ccc(F)cc3)C[C@]2(C(=O)c2cc(F)ccn2)C1)S(=O)(=O)c1ncn(C)n1 [Example 358, N-ethyl-N-((4aS,6S)-1-(4-fluorophenyl)-4a-(4-fluoropicolinoyl)-4,4a,5,6,7,8-hexahydro-1H-benzo[f]indazol-6-yl)-1-methyl-1H-1,2,4-triazole-3-sulfonamide]
13 | ≤ 100 nM | 25 to 50% | CCN([C@H]1CCC2=Cc3c(cnn3-c3ccc(F)cc3)C[C@]2(C(=O)c2cc(Cl)ccn2)C1)S(=O)(=O)c1ncn(C)n1 [Example 359, N-((4aS,6S)-4a-(4-chloropicolinoyl)-1-(4-fluorophenyl)-4,4a,5,6,7,8-hexahydro-1H-benzo[f]indazol-6-yl)-N-ethyl-1-methyl-1H-1,2,4-triazole-3-sulfonamide]
14 | ≤ 100 nM | 25 to 50% | Cn1cnc(S(=O)(=O)N(C2CC2)[C@H]2CCC3=Cc4c(cnn4-c4ccc(F)cc4)C[C@]3(C(=O)c3cc(Cl)ccn3)C2)c1 [Example 363, N-((4aS,6S)-4a-(4-chloropicolinoyl)-1-(4-fluorophenyl)-4,4a,5,6,7,8-hexahydro-1H-benzo[f]indazol-6-yl)-N-cyclopropyl-1-methyl-1H-imidazole-4-sulfonamide]
15 | ≤ 100 nM | ≤ 25% | Cn1ccc(S(=O)(=O)N([C@H]2CCC3=Cc4c(cnn4-c4ccc(F)cc4)C[C@]3(C(=O)c3ncc(C(F)(F)F)s3)C2)[C@H]2C[C@](O)(C(F)(F)F)C2)n1 [Example 366, N-((4aS,6S)-1-(4-fluorophenyl)-4a-(5-(trifluoromethyl)thiazole-2-carbonyl)-4,4a,5,6,7,8-hexahydro-1H-benzo[f]indazol-6-yl)-N-((1s,3R)-3-hydroxy-3-(trifluoromethyl)cyclobutyl)-1-methyl-1H-pyrazole-3-sulfonamide]
